Laboratory results as given in patent US10188601B2, “Continuous long-term controlled release of telomerase inhibitors” (priority 2013, dated 2019).

Legend:
cellular DNA = system: cellular DNA
Experimental: PdTMPyP4 was dissolved directly into medium as described above. After incubation with graded concentrations of PdTMPyp4 added to the medium for 24 or 48 h, the DNA was extracted and digested. […] Details of the methods used to extract the DNA fraction and prepare the samples for ICP-MS are given in Laster B H, et al. Brachytherapy. 2009; 8:324-30.

telomerase = conditions: L428 cells, 24 h incubation, graded concentrations; Pd tag versus H2 tag
Experimental: L428 cells were incubated for 24 h with graded concentrations of PdTMPyP4 or H2TMPyP4 dissolved in RPMI 1640 complete medium. The activation or inhibition of telomerase was measured using the Telomeric Repeat Amplification Protocol (TRAP) assay. The procedure is detailed in Tichon A, et al, Cytotherapy. 2009; 11:837-48.

[1] = single rod per tumor
Description: One PdTMPyP4 rod, prepared according to the Example 1, was implanted into the KHJJ tumor of each of 4 mice as described in the Example 7 above.
Blood was withdrawn from the junction of the submandibular/facial vein, centrifuged, and the clear supernatant removed, diluted 1:100 and measured in double-distilled water (DDW) as described in the Example 10 below.

[2] = In vitro release of PdTMPyP4 from PLGA rods over time in normal saline; assay type: physicochemical
Experimental: Eight rods, two each of matching weights, were placed in individual Eppendorf tubes with 1 ml of normal saline and incubated at 37° C. For measuring PdTMPyP4 release via absorbance, a 10 μl sample were removed and diluted 1:100 with DDW, and absorbance of the resulting solution measured in the spectrophotometer at 415 nm for the first 28 days. […] The removal of a 10 μl sample from the fresh saline solution required a 1:10 dilution in DDW for appropriate reading. […] To compare the release of PdTMPyP4 after the various dilutions, the concentrations were normalized to the dilution factor used during the first 28 days (1:100).

[3] = system: L428 Hodgkin's lymphoma cells
Description: In these experiments, PdTMPyP4/PLGA rods, manufactured as described in the Example 1, were used to release and maintain the continuous exposure of exponentially-growing L428 Hodgkin's Lymphoma cells to PdTMPyP4 throughout the 8 day experiment. To maintain and encourage exponential growth, cells were split before they neared their maximum density 1.5×10^6 cells/ml. Precautions were taken, in advance, to prevent the dilution of the drug during cell splitting by placing the rods into the medium that would be used when splits were required. Cells were initially seeded into each of 3 different treatment flasks at a cell density of 3.0×10^5 cells/ml in a volume of 25 ml. The cultures were split at 120 and 192 hours. The flasks consisted of:
Fourteen ‘medium-transfer’ flasks were prepared in advance for use during the splitting of the flasks. Twelve (6 each) of these contained 25 ml of complete medium and either 2 PdTMPyP4/PLGA rods or 2 blank PLGA rods.
Two additional flasks contained 25 ml conditioned medium were prepared in advance, by removing from previously grown cells and sterilizing, and whereto either PdTMPyP4/PLGA or 2 PLGA rods were added. This approach permitted the same exponential growth conditions for all treatments even when the flasks were split.
When cells in either flask A, B, or C neared their maximum cell density and required splitting, all flasks were split at this same time and medium from the transfer flasks was added to both the original and new flasks to restore the volume to 25 ml. A 3-ml aliquot of cells was removed from the flasks containing the suspension cells and was counted on a daily basis using a hemocytometer and trypan blue exclusion. The volume removed was replaced with the pretreated medium. […] Cells in each of the split dishes were counted, and counts from all flasks were combined to yield the total number of cells. By combining the cell counts from the split flasks, and using the total cell number, technical errors in counting the cells from the different flasks were reduced.

C[n+]1ccc(-c2c3nc(c(-c4cc[n+](C)cc4)c4ccc([n-]4)c(-c4cc[n+](C)cc4)c4nc(c(-c5cc[n+](C)cc5)c5ccc2[n-]5)C=C4)C=C3)cc1.[Pd+2] [PdTMPyP4, Palladium-tagged tetra (4-N-methylpyridyl) porphyrin]
effect of Pd tag on DNA uptake of the porphyrin (cellular DNA; compared with naive TMPyP4): does not alter DNA uptake | uptake in DNA converted to moles (cellular DNA; incubation 24 or 48 h with graded concentrations): about 1.7×10^−14 mol | measured uptake of Pd atoms in the DNA of the cell (cellular DNA; incubation 24 or 48 h with graded concentrations, ICP-MS): about 10^9 Pd atoms | telomerase activity inhibition (telomerase): superior inhibition | plasma levels by the second and third week [1]: restoration of plasma levels to that on day 0 | PdTMPyP4 concentration in blood plasma ([1]; four mice, weekly measurements): negligible concentrations | duration of gradual and continuous release [2]: > 30 days | time of sudden decrease in cells exposed ([3]; 19-day experiment, continuous release from PLGA rods): about 200 h | factor by which cell number was lower than with the other treatments ([3]; 19-day experiment, from about 200 h through remaining 11 days): 5-6 times | cell number compared to the other treatments at end of experiment ([3]; 8 day experiment, 264 h, versus untreated and blank PLGA): lower | time to L428 cell lethality after telomerase inhibition ([3]; continuous exposure via rods): about 8 days
